One data set concerns the target human full length PDE3B (Homo sapiens (Human), UniProt Q13370). The experiment in a line: Assay 5 PDE3B enzyme inhibition (3H-cAMP SPA). To be noted: Sf9 cell extract. It is filed as biochemical. Put shortly:
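Sf9 cell extract expressing human full-length PDE3B, diluted for linear kinetics (<70% substrate use), in 50 mM Tris/HCl pH 7.5, 8.3 mM MgCl2, 1.7 mM EDTA. [8-3H]cAMP substrate, 60 min at room temperature; stopped with yttrium SPA beads, scintillation counting. IC50 from sigmoidal activity vs log concentration curves.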

The subject of another data set is IGR37 cells. In words: Assay 1 cell proliferation measurement (CTG, 72 h), IGR37. Format: cell-based. To be noted: Homo sapiens, IGR-37, Cell Titer Glo, read-out: IGR37 IC50 [nM] (melanoma). For orientation: In ATP-based viability assays light output follows the ATP content of the culture.
Data set [1] is described as follows: Assay 6 in vitro metabolic stability in cryopreserved human hepatocytes (CL, Fmax). It is filed as in vitro ADME. To be noted: 1 μM test compound; for Clblood: hepatic in vivo blood clearance calculated (well-stirred) from half-life in cryopreserved human hepatocytes; for Fmax: maximal oral bioavailability calculated from half-life in cryopreserved human hepatocytes. The protocol: Assay 6 Method for Human Cryo Hepatocytes:
Investigation of In Vitro Metabolic Stability in Cryopreserved Human Hepatocytes (Including Calculation of Hepatic In Vivo Blood Clearance (CL) and Maximal Oral Bioavailability (Fmax))
Cryopreserved Hepatocytes (e.g. purchased from Celsis InVitroTechnologies) were briefly thawed, washed with 45 mL pre-warmed in in vitro GRO HT medium and centrifuged for 5 min at 50×g. The cell pellet was resuspended in 5 ml of Krebs-Henseleit […] (KHB). Cell viability was determined by trypan blue exclusion.
For the metabolic stability assay liver cells were distributed in WME containing 5% FCS to glass vials at a density of 1.0×10^6 vital cells/ml. The test compound was added to a final concentration of 1 μM. During incubation, the hepatocyte suspensions were continuously shaken at 580 rpm and aliquots were taken at 2, 8, 16, 30, 45 and 90 min, to which equal volumes of cold methanol were immediately added. Samples were frozen at −20° C. over night, after subsequently centrifuged for 15 minutes at 3000 rpm and the supernatant was analyzed with an Agilent 1290 HPLC-system with LCMS/MS detection.
The half-life of a test compound was determined from the concentration-time plot. From the half-life the intrinsic clearances were calculated. Together with the additional parameters liver blood flow, amount of liver cells in vivo and in vitro. The hepatic in vivo blood clearance (CL) and the maximal oral bioavailability (Fmax) was calculated.

For the next data set, the system named is SK-MEL-3 cells. In words: Assay 1 cell proliferation measurement (CTG, 72 h), SK-MEL-3. Format: cell-based, human. To be noted: Homo sapiens, SK-MEL3; Assay 1, 72 h, Cell Titer Glo; read-out: SK-MEL-3 IC50 [nM] (melanoma). Put shortly:
(§1)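 Cells were plated, grown overnight at 37 °C, then treated 72 h with a 10-step 2.5-fold dilution series from 100 nM maximum final (0.3% DMSO vehicle). Viability was read by CellTiter-Glo luminescence. IC50 from a 4-parameter fit, normalised to a 0 h plate (maximum inhibition) and DMSO control (minimum inhibition).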

A further data set concerns the target human full length PDE3A (Homo sapiens (Human), UniProt Q14432). In words: Assay 4 PDE3A enzyme inhibition (3H-cAMP SPA). It is filed as biochemical. To be noted: Sf9 cell extract. Put shortly: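 Hydrolysis of [8-3H]cAMP by Sf9-expressed full-length PDE3A was measured by scintillation proximity, with enzyme diluted to keep kinetics linear and substrate consumption below 70%. Incubation ran 60 min at room temperature at pH 7.5.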

The test system of a further data set is HeLa cells. The experiment in a line: Assay 1 cell proliferation measurement (CTG, 72 h), HeLa. It is filed as cell-based, human. To be noted: Homo sapiens, HeLa; Assay 1, 72 h, Cell Titer Glo; read-out: HeLa IC50 [nM] (Cervical cancer). Put shortly:
as §1

The test system of a further data set is PA-1 cells. The experiment in a line: Assay 1 cell proliferation measurement, PA-1. Format: cell-based. To be noted: Homo sapiens, Ovarian teratocarcinoma, read-out: Anti-proliferation IC50 [nM] PA-1.
The test system of another data set is A-2058 cells. In words: Assay 1 cell proliferation measurement, A-2058. Format: cell-based. To be noted: Homo sapiens, A2058; Melanoma; read-out: Anti-proliferation IC50 [nM] A-2058.
Another data set has as its system CHL-1 cells. In words: Assay 1 cell proliferation measurement, CHL-1. It is filed as cell-based. To be noted: Homo sapiens, Melanoma, read-out: Anti-proliferation IC50 [nM] CHL-1.
The test system of another data set is DK-MG cells. In words: Assay 1 cell proliferation measurement, DK-MG. It is filed as cell-based. To be noted: Homo sapiens; Glioblastoma; read-out: Anti-proliferation IC50 [nM] DK-MG.
For a further data set, the system named is HEL 92.1.7 cells. The experiment in a line: Assay 1 cell proliferation measurement, HEL 92.1.7. Format: cell-based. To be noted: Homo sapiens, Erythroleukemia, read-out: Anti-proliferation IC50 [nM] HEL 92.1.7.
The next data set deals with Hs 578T cells. In words: Assay 1 cell proliferation measurement, Hs 578T. To be noted: Homo sapiens, Breast, read-out: Anti-proliferation IC50 [nM] Hs 578T. Format: cell-based.
For a further data set, the system named is DBTRG-05-MG cells. The experiment in a line: Assay 1 cell proliferation measurement, DBTRG-05-MG. It is filed as cell-based. To be noted: Homo sapiens, Glioblastoma, read-out: Anti-proliferation IC50 [nM] DBTRG-05-MG.

human full length PDE3B, sequence (Q13370 whole entry): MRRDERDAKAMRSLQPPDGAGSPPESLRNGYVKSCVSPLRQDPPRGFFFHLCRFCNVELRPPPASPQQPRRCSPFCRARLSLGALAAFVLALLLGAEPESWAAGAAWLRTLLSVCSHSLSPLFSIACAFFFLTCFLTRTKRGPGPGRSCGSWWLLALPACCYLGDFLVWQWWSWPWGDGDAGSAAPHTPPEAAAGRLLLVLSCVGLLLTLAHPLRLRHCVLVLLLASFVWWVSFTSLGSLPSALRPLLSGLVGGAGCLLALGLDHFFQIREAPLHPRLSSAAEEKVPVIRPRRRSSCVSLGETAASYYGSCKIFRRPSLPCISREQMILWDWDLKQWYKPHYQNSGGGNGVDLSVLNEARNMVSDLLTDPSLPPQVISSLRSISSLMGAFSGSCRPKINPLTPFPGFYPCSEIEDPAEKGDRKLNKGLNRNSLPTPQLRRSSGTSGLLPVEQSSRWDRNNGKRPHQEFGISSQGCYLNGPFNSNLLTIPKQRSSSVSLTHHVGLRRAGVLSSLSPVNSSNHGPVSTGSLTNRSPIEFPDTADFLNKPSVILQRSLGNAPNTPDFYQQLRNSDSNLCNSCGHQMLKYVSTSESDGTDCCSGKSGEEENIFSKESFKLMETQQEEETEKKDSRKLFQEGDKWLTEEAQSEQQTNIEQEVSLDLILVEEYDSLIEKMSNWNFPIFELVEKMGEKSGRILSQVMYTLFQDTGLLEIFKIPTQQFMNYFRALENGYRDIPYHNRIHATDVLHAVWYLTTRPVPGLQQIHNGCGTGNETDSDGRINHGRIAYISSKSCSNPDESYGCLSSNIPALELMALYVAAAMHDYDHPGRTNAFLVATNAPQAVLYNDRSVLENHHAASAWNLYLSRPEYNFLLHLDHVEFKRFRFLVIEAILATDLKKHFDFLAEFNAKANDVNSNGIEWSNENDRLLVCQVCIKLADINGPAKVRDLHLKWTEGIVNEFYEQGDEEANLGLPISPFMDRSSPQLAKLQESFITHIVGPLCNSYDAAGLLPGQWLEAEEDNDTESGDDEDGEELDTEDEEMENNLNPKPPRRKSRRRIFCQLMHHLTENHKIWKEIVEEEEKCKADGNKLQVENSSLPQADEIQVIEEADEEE
human full length PDE3A, sequence (Q14432 whole entry): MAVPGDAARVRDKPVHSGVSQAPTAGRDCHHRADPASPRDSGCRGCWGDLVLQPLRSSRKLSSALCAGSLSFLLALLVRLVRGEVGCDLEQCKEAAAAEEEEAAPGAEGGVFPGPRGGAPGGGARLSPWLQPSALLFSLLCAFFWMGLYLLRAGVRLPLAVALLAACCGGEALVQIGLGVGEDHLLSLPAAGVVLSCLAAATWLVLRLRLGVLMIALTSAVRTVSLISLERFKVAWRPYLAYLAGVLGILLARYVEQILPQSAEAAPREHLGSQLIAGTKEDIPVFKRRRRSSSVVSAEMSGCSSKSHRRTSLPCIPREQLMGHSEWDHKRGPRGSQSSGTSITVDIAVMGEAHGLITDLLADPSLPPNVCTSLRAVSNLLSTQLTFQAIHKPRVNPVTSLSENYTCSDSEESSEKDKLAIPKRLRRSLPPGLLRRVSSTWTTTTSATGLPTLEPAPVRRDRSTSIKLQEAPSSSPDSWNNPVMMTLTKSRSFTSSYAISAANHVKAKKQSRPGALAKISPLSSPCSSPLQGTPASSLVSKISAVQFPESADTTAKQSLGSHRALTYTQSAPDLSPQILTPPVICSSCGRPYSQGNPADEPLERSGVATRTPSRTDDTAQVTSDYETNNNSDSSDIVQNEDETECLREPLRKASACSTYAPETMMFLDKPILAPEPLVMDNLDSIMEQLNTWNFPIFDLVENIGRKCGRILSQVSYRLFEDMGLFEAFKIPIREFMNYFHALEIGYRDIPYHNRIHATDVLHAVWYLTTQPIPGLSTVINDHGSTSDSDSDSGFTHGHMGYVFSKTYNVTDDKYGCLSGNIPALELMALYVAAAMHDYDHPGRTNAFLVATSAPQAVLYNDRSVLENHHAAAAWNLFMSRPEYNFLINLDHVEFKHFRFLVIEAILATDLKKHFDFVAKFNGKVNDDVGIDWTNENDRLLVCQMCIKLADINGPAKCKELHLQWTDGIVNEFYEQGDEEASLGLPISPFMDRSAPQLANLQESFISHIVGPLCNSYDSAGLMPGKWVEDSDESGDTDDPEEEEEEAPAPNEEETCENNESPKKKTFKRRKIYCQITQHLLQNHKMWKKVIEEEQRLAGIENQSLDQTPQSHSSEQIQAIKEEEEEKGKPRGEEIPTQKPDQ

On to `C[C@@H]1OC(=O)NN=C1c1ccc(-c2ccnc(N)c2)c(C(F)(F)F)c1` [Example 165, (6S)-5-[4-(2-Aminopyridin-4-yl)-3-(trifluoromethyl)phenyl]-6-methyl-3,6-dihydro-2H-1,3,4-oxadiazin-2-one], for which the IC50 against human full length PDE3B came to 66 nM; with IGR37 cells it was 1 nM; in the data set on SK-MEL-3 cells, 1 nM; on human full length PDE3A, 77 nM; with HeLa cells, 1 nM. For the same compound, in [1], the Clblood is 14.7 mL/min/kg. In addition, the Fmax in [1] is listed as 33%.

On to `C[C@@H]1OC(=O)NN=C1c1ccc(N2CCN(C)CC2)c(C(F)(F)F)c1` [Example 277, (6S)-6-Methyl-5-[4-(4-methylpiperazin-1-yl)-3-(trifluoromethyl)phenyl]-3,6-dihydro-2H-1,3,4-oxadiazin-2-one], for which the IC50 on human full length PDE3B was 87 nM; with PA-1 cells, more than 100 nM; with A-2058 cells, more than 100 nM; in the data set on IGR37 cells it was 1 nM; in the data set with CHL-1 cells, more than 100 nM; in the data set with SK-MEL-3 cells, 1 nM. Further, the IC50 in the data set on DK-MG cells is more than 100 nM; with HEL 92.1.7 cells, more than 100 nM; at human full length PDE3A it was 100 nM; in the data set on HeLa cells, 0.3 nM; in the data set on Hs 578T cells, more than 100 nM; in the data set on DBTRG-05-MG cells it was more than 100 nM.

Turning to `CC1OC(=O)NN=C1c1ccc(N2CCOCC2)c(C(F)(F)F)c1` (racemic) [Example 126, (rac)-6-Methyl-5-(4-morpholino-3-(trifluoromethyl)phenyl)-3,6-dihydro-2H-1,3,4-oxadiazin-2-one], the IC50 at human full length PDE3B is 8 nM; in the data set on IGR37 cells, 2 nM; in the data set on SK-MEL-3 cells, 1 nM; at human full length PDE3A, 12 nM; in the data set on HeLa cells, 1 nM.

For `C[C@@H]1OC(=O)NN=C1c1ccc(CN2CCOCC2)c(C(F)(F)F)c1` [Example 196, (6S)-6-Methyl-5-{4-[(morpholin-4-yl)methyl]-3-(trifluoromethyl)phenyl}-3,6-dihydro-2H-1,3,4-oxadiazin-2-one], the IC50 was 790 nM against human full length PDE3B; 33 nM in the data set with IGR37 cells; 31 nM in the data set on SK-MEL-3 cells; 810 nM at human full length PDE3A; 15 nM in the data set with HeLa cells.

Turning to `N#CC1CCN(c2ccc(C3=NNC(=O)OC3)cc2C(F)(F)F)CC1` [Example 239, 1-[4-(2-Oxo-3,6-dihydro-2H-1,3,4-oxadiazin-5-yl)-2-(trifluoromethyl)phenyl]piperidine-4-carbonitrile], the IC50 on human full length PDE3B stood at 26 nM; in the data set on IGR37 cells it was 1 nM; in the data set on SK-MEL-3 cells, 1 nM; against human full length PDE3A, 27 nM; in the data set on HeLa cells it was 0.3 nM.

With `O=C1NN=C(c2ccc(-c3ccccc3C(F)F)c(F)c2)CO1` [Example 161, 5-[2′-(Difluoromethyl)-2-fluoro[1,1′-biphenyl]-4-yl]-3,6-dihydro-2H-1,3,4-oxadiazin-2-one], the IC50 at human full length PDE3B was 49 nM; in the data set with IGR37 cells, 12 nM; in the data set on SK-MEL-3 cells, 10 nM; against human full length PDE3A, 66 nM; with HeLa cells, 6 nM. Further, the Clblood in data set [1] was 9.17 mL/min/kg. The Fmax in data set [1] is given as 59%.

For `CC1OC(=O)NN=C1c1ccc(-c2ccc(F)cc2)c(C(F)(F)F)c1` (racemic) [Example 192, (rac)-5-[4′-Fluoro-2-(trifluoromethyl)[1,1′-biphenyl]-4-yl]-6-methyl-3,6-dihydro-2H-1,3,4-oxadiazin-2-one], the IC50 worked out at 120 nM on human full length PDE3B; 7 nM with IGR37 cells; 6 nM in the data set on SK-MEL-3 cells; 320 nM against human full length PDE3A; 2 nM with HeLa cells.

For the compound `O=C1NN=C(c2ccc(NCc3cnccn3)c(C(F)(F)F)c2)CO1` [Example 226, 5-[4-{[(Pyrazin-2-yl)methyl]amino}-3-(trifluoromethyl)phenyl]-3,6-dihydro-2H-1,3,4-oxadiazin-2-one], the IC50 was found to be 187 nM at human full length PDE3B; 2 nM in the data set on IGR37 cells; 2 nM in the data set with SK-MEL-3 cells; 128 nM at human full length PDE3A; 1 nM in the data set with HeLa cells.

As for `CC1OC(=O)NN=C1c1ccc(-c2cnn(C(F)F)c2)c(C(F)(F)F)c1` (racemic) [Example 191, (rac)-5-{4-[1-(Difluoromethyl)-1H-pyrazol-4-yl]-3-(trifluoromethyl)phenyl}-6-methyl-3,6-dihydro-2H-1,3,4-oxadiazin-2-one], the IC50 on human full length PDE3B was 57 nM; in the data set with IGR37 cells it was 1 nM; in the data set on SK-MEL-3 cells it was 1 nM; against human full length PDE3A, 48 nM; with HeLa cells it was 0.4 nM.

On to `O=C1NN=C(c2ccc(-c3ccc(F)cc3)c(OC(F)(F)F)c2)CO1` [Example 76, 5-[4′-Fluoro-2-(trifluoromethoxy)biphenyl-4-yl]-3,6-dihydro-2H-1,3,4-oxadiazin-2-one], for which the IC50 against human full length PDE3B came out at 250 nM; in the data set with IGR37 cells it was 13 nM; with SK-MEL-3 cells, 13 nM; on human full length PDE3A, 225 nM; with HeLa cells it was 6 nM. Also, the Clblood in data set [1] is 4.5 mL/min/kg. Further, the Fmax in data set [1] is on record as 80%.

In the case of `C[C@@H]1OC(=O)NN=C1c1ccc(-c2cnn(C(F)F)c2)c(C(F)(F)F)c1` [Example 190, (6S)-5-{4-[1-(Difluoromethyl)-1H-pyrazol-4-yl]-3-(trifluoromethyl)phenyl}-6-methyl-3,6-dihydro-2H-1,3,4-oxadiazin-2-one], the IC50 on human full length PDE3B is 25 nM; in the data set with IGR37 cells, 0.4 nM; in the data set on SK-MEL-3 cells, 0.4 nM; against human full length PDE3A it was 38 nM; with HeLa cells, 0.2 nM. Moreover, the Clblood in data set [1] was 15 mL/min/kg. The Fmax in data set [1] is on record as 32%.

With `C[C@@H]1OC(=O)NN=C1c1ccc(-n2cnc(C(F)(F)F)c2)c(C(F)(F)F)c1` [Example 266, (6S)-6-Methyl-5-{3-(trifluoromethyl)-4-[4-(trifluoromethyl)-1H-imidazol-1-yl]phenyl}-3,6-dihydro-2H-1,3,4-oxadiazin-2-one], the IC50 against human full length PDE3B is 930 nM; in the data set on IGR37 cells, 65 nM; in the data set with SK-MEL-3 cells it was 35 nM; at human full length PDE3A it was more than 1000 nM; with HeLa cells it was 19 nM.

In the case of `C[C@@H]1OC(=O)NN=C1c1cc(Cl)c(N2CCOCC2)c(C(F)(F)F)c1` [Example 121, (6S)-5-(-[(3-Chloro-4-(morpholin-4-yl)-5-(trifluoromethyl)phenyl)-)]-6-methyl-3,6-dihydro-2H-1,3,4-oxadiazin-2-one], the IC50 was 299 nM against human full length PDE3B; 12 nM with IGR37 cells; 10 nM in the data set with SK-MEL-3 cells; 150 nM against human full length PDE3A; 5 nM in the data set on HeLa cells. For the same compound, in data set [1], the Clblood was 2.17 mL/min/kg. For the same compound, the Fmax in data set [1] is 90%.

Values taken from patent US11427553B2, “Dihydrooxadiazinones” (Bayer Aktiengesellschaft, priority 2017, dated 2022).
